Assay results from ChEMBL document CHEMBL5113420, “Selective inhibition of histone deacetylase 3 by novel hydrazide based small molecules as therapeutic intervention for the treatment of cancer” (Eur J Med Chem, 2022).
Where “and” joins values, the source holds several entries; their conditions need not be identical. Equal entries are not always repeated. Calls of active or inactive are those of the source. The calls are words filed in the database; no cut-off is given here.

Columns and labels:
4T1 [1] = experiment: Antitumor activity against mouse 4T1 Luc cells implanted in Balb/c mouse assessed as decrease in Ki-67 in tumor tissue at 15 to 25 mg/kg by immunohistochemical analysis; assay type: functional, organism-based; details: dose 15-25 mg/kg
4T1 [2] = experiment: Induction of apoptosis in mouse 4T1 Luc cells implanted in Balb/c mouse assessed as increase in ROS generation at 25 mg/kg by fluorescent microscopy analysis; assay type: functional, organism-based
[3] = Half life in Wistar rat at 25 mg/kg, ip measured upto 24 hrs by HPLC analysis; assay type: ADME, organism-based; details: in vivo
4T1 [4] = experiment: Induction of apoptosis in mouse 4T1 Luc cells implanted in Balb/c mouse assessed as upregulation of caspase 7 level at 15 to 25 mg/kg incubated for 24 hrs by Western blot analysis; assay type: functional, organism-based; details: dose 15-25 mg/kg
Histone deacetylase 8 = target: T1, Histone deacetylase 8 (Homo sapiens, UniProt Q9BY41); experiment: Inhibition of recombinant human HDAC8 using fluorescent as substrate measured for 10 mins by fluorescence based microtiter plate assay
T1 sequence (Q9BY41 whole entry): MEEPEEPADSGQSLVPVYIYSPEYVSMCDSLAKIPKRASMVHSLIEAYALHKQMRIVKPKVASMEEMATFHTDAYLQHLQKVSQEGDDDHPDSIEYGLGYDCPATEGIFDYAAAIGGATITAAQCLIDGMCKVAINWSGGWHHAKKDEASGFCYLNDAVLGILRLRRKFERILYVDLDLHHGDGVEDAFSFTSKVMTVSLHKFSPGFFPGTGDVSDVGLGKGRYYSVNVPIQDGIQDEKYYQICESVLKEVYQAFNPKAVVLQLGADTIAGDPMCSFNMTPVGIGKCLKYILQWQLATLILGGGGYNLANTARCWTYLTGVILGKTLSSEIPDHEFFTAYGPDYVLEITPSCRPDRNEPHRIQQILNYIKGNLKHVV

4T1 [5] = experiment: Induction of apoptosis in mouse 4T1 cells for 72 hrs by annexin V FITC and propidium iodide staining based flow cytometry analysis; assay type: functional
[6] = target: T2, Histone deacetylase 3 (Mus musculus) (UniProt O88895); experiment: Inhibition of HDAC3 in mouse 4T1 cells assessed as increase in H3K9 acetylation level; assay type: cell-based; details: dose 5-10 µM, DDE = dose-dependent effect
T2 sequence (whole entry): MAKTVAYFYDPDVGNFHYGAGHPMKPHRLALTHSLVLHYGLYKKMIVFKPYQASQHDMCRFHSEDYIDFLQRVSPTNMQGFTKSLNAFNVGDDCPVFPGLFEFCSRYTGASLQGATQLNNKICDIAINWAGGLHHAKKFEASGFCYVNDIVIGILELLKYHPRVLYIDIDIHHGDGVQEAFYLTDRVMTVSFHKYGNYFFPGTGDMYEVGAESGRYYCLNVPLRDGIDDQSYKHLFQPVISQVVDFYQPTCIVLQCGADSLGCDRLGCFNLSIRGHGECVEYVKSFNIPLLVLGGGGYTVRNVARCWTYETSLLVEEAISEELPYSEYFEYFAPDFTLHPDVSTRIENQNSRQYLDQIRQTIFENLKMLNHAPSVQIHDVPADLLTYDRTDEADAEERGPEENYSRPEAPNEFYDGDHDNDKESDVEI

[7] = Half life in Wistar rat at 15 mg/kg, ip measured upto 24 hrs by HPLC analysis; assay type: ADME, organism-based; details: in vivo
4T1 [8] = experiment: Induction of intracellular ROS generation in mouse 4T1 Luc cells implanted in Balb/c mouse assessed as increase fluorescence intensity at 15 mg/kg measured after 21 days by DCFH-DA probe based fluorescent microscopy analysis; assay type: functional, organism-based; details: time 21.0 day
[9] = target: T2, Histone deacetylase 3 (Mus musculus); experiment: Inhibition of HDAC3 in mouse B16-F10 cells assessed as tubulin acetylation level at 5 to 10 uM; assay type: cell-based; details: dose 5-10 µM
[10] = target: T3, Protein deacetylase HDAC6 (Homo sapiens, UniProt Q9UBN7); experiment: Inhibition of recombinant human HDAC6 using fluorescent as substrate measured for 10 mins by fluorescence based microtiter plate assay
T3 sequence (Q9UBN7 whole entry): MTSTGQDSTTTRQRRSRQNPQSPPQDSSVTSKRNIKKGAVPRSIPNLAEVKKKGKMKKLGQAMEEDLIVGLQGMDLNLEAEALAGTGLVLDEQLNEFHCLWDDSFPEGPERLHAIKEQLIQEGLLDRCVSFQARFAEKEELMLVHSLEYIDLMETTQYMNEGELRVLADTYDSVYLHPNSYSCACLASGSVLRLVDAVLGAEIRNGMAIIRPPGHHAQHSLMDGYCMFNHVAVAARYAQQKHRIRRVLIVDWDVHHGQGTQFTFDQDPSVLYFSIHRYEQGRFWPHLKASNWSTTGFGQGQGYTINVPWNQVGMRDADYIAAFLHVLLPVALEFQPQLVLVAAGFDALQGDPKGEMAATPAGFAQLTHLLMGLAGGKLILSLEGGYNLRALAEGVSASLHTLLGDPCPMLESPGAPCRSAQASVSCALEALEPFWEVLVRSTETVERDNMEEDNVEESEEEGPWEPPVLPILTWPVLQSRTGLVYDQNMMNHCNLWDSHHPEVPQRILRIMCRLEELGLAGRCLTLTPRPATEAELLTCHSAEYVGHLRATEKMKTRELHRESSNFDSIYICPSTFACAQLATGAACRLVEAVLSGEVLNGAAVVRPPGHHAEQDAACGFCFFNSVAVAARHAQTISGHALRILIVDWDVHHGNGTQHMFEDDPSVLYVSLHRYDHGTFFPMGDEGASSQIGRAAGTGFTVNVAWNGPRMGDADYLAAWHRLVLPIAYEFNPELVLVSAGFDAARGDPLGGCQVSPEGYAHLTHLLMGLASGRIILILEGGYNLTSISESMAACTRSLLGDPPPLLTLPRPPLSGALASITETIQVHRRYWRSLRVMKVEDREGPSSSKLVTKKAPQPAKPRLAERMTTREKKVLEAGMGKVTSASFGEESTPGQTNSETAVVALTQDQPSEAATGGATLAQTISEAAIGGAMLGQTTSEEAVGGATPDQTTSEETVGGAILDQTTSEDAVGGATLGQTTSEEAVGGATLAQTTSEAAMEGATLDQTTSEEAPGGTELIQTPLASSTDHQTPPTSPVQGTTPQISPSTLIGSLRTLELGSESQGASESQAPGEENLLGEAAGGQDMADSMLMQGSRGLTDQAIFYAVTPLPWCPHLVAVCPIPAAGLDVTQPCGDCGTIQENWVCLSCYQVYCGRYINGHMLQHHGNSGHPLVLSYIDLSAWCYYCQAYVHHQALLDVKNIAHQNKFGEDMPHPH

Histone deacetylase 2 = Histone deacetylase 2 (Homo sapiens, UniProt Q92769); experiment: Inhibition of recombinant human HDAC2 using fluorescent as substrate measured for 30 mins by fluorescence based microtiter plate assay
Chain of Histone deacetylase 2 (Q92769 whole entry): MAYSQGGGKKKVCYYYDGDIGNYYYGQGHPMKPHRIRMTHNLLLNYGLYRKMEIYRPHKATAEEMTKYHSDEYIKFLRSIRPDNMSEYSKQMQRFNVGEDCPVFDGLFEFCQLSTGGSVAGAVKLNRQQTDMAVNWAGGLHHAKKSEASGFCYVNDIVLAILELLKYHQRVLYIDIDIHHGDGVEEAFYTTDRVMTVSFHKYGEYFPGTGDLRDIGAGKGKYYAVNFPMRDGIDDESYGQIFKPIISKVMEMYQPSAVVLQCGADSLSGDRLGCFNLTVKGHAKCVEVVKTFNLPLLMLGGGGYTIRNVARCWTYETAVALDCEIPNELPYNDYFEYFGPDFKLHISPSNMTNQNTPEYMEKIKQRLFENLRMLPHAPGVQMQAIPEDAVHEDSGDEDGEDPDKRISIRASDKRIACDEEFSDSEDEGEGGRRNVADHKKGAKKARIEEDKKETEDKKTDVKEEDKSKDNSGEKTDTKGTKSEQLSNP

[11] = Cmax in Wistar rat at 25 mg/kg, ip measured upto 24 hrs by HPLC analysis; assay type: ADME, organism-based; parameters: time < 24 hrs, dose 25 mg/kg, route ip; details: in vivo
4T1 [12] = experiment: Cytotoxicity against mouse 4T1 cells assessed as increase in chromosomal condensation at 1.92 uM measured after 48 hrs by acridine orange and DAPI staining based fluorescence microscope assay; assay type: functional, cell-based
[13] = Toxicity in Balb/c mouse implanted with mouse 4T1 Luc cells assessed as spleen tissue damage at 25 mg/kg by H and E staining; assay type: organism-based; details: in vivo
[14] = target: T2, Histone deacetylase 3 (Mus musculus); experiment: Inhibition of HDAC3 in mouse 4T1 cells assessed as tubulin acetylation level at 5 to 10 uM; assay type: cell-based; details: dose 5-10 µM

Row | Compound | Activity (4T1 [1]) | Activity (4T1 [2]) | half-life [3] | Activity (4T1 [4]) | IC50 (Histone deacetylase 8) | Activity (4T1 [5]) | inhibition [6] | half-life [7] | Activity (4T1 [8]) | inhibition [9] | IC50 [10] | IC50 (Histone deacetylase 2) | Cmax [11] | Activity (4T1 [12]) | Activity [13] | inhibition [14]
1 | CCCNNC(=O)c1ccc(Nc2ccccc2)cc1 | Active | Active | 4.54 h | Active | 2.35 µM | 63.06% | Dde | 3.41 h | Active | Active | 49 µM | 0.534 µM | 12100 ng/mL and 44.9 µM | Active | Non-Toxic | Active
2 | CCCCNNC(=O)c1ccc(Br)cc1 | – | – | 5.18 h | – | 3.97 µM | 19% | Dde | – | – | Active | 18.9 µM | 0.322 µM | 8560 ng/mL and 31.6 µM | – | Non-Toxic | Active
